Experimental data reported in US9632090B2, “Compositions and methods for the identification, assessment, prevention and therapy of thymic lymphoma or hamartomatous tumours” (Dana-Farber Cancer Institute, Inc., priority 2007, dated 2017).
Where two headings read alike, the source gives them in different places.

What was measured:
[1] = DMBA carcinogen treatment, survival and tumor development; format: in vivo, mouse; conditions: treated at day 7
Procedure: Littermate controls were analyzed for tumor-free survival. Animals were genotyped by PCR and allowed to age undisturbed in a maximum of 5 mice per cage with standard chow and water ad libitum in a standard light-day cycle. Mice were monitored three times a week and were sacrificed when moribund or if external tumors exceeded 2 cm in diameter and scored as a death in survival analysis. Those animals with cancer, as determined by histological analysis, were scored as an event in the tumor-free survival Kaplan-Meier analysis. For lung tumors, analysis of tumor load was carried out as done previously (Zhang et al., 2001).
Seven-day old pups were treated with 5% 7,12-dimethylbenz-alpha-anthracene (DMBA) in acetone by pipetting 50 μl onto the back, and allowing it to air-dry. Mice were monitored three times a week for signs of morbidity and underwent full autopsies for tumor detection.

[2] = tested on: liver ECs; experiment: MTT viability assay, liver endothelial cells; format: cell-based, mouse
Procedure: (§1) 100 ng/ml FGF, or 10% FBS.

[3] = tested on: lung ECs; experiment: MTT viability assay, lung endothelial cells; format: cell-based, mouse
Procedure: as §1

[4] = tested on: liver ECs
Procedure: Livers of Mx-Cre^+ or Mx-Cre^− mice injected with pI-pC 3 weeks prior were used for the isolation of liver ECs. Liver tissues were homogenized and digested in collagenase D and lysates were run through a cell strainer. ECs were enriched by taking the interphase of a 30% Histodenz (Sigma) and RPMI suspension of cells overlaid after spinning at 1500×g for 20 min. Cells were further affinity isolated by CD31-M450 prebound magnetic beads. […] VEGF and basic FGF were obtained from the Biological Resources Branch, NCI Preclinical Repository. Cells were grown in DMEM+0.5% BSA supplemented with 100 ng/ml VEGF. 100 ng/ml FGF, or 10% FBS. EC proliferation and apoptosis were measured with the BrdU labelling and detection kit (Roche) and the In situ cell death detection kit (Roche), respectively per the manufacturer's instruction. Viability of cells after various treatments was measured by MTT (2,3-bis-(2-methoxy-4-nitro-5-sulfophenyl)-2H-tetrazolium-5-carboxanilide) assays in 96 well plates. […] Vector (pLKO) alone and pLKO-GFP were used as controls to exclude non-specific responses. Cells were selected for 96 hrs with puromycin (1 μg/ml) and used for further assays.

[5] = tested on: thymocytes; experiment: Thymocyte apoptosis / cell viability (propidium iodide, flow cytometry); format: cell-based, mouse; conditions: 1 μM, 18 hrs
Procedure: For analysis of thymocytes, fresh thymus was passed through a cell strainer (Becton Dickinson) in order to produce single cell suspensions for analysis and resuspended in RPMI-1640 media containing 10% fetal calf serum. For thymocyte proliferation assays, cells were seeded in 96-well plates at 1×10^5 cells per well and subjected to the following conditions: no mitogen, PMA (1 ng/ml)+ionomycin (50 ng/ml), and 3 μg/ml anti-CD3e (eBioscience)+100 U IL-2. Cells were grown for 48 hours, pulsed with 1 μCi [3H]-thymidine (Amersham) for the last 16 hours. Incorporated [3H]-thymidine was measured using the 1450 MicroBeta Trilux Scintillation and Luminescence Counter. For analysis of apoptosis, thymocytes were plated in 12-well plates (1×10^6 cells per well) and treated with 5 Gy gamma-irradiation or 1 μM dexamethasone for 18 hours. Cell viability was determined by staining the cells with propidium iodide and performing flow cytometric analysis.

[6] = tested on: VEGF; conditions: intravitreal, proliferative diabetic retinopathy, short term therapy; cited from earlier work
Sequence of VEGF (P15692 207-311 limits assumed): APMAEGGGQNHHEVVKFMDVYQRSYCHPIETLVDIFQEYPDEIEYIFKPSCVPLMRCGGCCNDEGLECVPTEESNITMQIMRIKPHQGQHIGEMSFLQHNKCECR

Cc1c2ccccc2c(C)c2c1ccc1ccccc12 [DMBA, 7,12-dimethylbenz-alpha-anthracene]
median survival ([1]; FoxO4+/+ mice): 27.3 weeks
median survival ([1]; FoxO4-/- mice): 23.4 weeks

TGF-β1: cytokine known to induce EC cytostasis through Smad signalling
survival upon exposure ([2]; Mx-Cre- liver ECs (reduced survival)): ~60%
survival upon exposure ([2]; liver ECs, much less sensitive): ~90%
sensitivity to stimulation ([3]; lung ECs irrespective of FoxO status): insensitive

VEGF
increase in viability (proliferation upon stimulation) ([2]; Mx-Cre+ liver ECs): 73.3%
increase in viability (proliferation upon stimulation) ([2]; Mx-Cre- liver ECs): 17.9%
increase in viability ([3]; Mx-Cre+ lung ECs): 47.2%
increase in viability ([3]; Mx-Cre- lung ECs): 41.7%
tube length (VEGF-induced tube formation) ([4]; Mx-Cre+ liver ECs): 4123±318 μm
tube length (VEGF-induced tube formation) ([4]; Mx-Cre- liver ECs): 3229±285 μm

C[C@@H]1C[C@H]2[C@@H]3CCC4=CC(=O)C=C[C@]4(C)[C@@]3(F)[C@@H](O)C[C@]2(C)[C@@]1(O)C(=O)CO [dexamethasome, dexamethasone]
survival ([5]; Mx-Cre+ thymocytes): 69.3±0.7 % survival
survival ([5]; Mx-Cre- thymocytes): 50.6±2.6 % survival

bevacizumab: humanized anti-VEGF-A monoclonal antibody
angiographic leaking [6]: complete resolution of angiographic leaking
